Results taken from ChEMBL document CHEMBL6134818, “Development of 3-arylaminothiophenic-2-carboxylic acid derivatives as new FTO inhibitors showing potent antileukemia activities” (Eur J Med Chem, 2025).

Columns and labels:
[1] = target: Alpha-ketoglutarate-dependent dioxygenase FTO (Homo sapiens, UniProt Q9C0B1); test: Inhibition of N-terminal truncated FTO demethylation (unknown origin) using 5'-ATTGCCATTCTCGATAGG(dm6A)TCCGGTCAAACCTAGACGAA-3' ssDNA template incubated for 2 hrs by PAGE-based assay
Chain of Alpha-ketoglutarate-dependent dioxygenase FTO (Q9C0B1 whole entry, the tested form may be a part): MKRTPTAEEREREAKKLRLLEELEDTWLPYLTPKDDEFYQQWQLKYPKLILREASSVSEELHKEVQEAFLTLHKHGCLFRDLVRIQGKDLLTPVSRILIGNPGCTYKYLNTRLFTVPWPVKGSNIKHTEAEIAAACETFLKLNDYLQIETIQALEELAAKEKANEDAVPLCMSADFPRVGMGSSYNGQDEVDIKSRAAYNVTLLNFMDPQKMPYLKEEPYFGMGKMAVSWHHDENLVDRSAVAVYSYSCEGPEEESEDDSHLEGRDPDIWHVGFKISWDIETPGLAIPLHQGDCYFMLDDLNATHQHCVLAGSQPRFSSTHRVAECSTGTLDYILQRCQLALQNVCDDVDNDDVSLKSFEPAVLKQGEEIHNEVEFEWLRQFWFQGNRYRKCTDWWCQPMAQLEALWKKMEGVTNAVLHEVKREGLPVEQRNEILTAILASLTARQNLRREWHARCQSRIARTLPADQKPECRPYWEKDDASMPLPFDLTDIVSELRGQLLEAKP

[2] = test system: NB-4; test: Anti-proliferative activity against human NB4 cells assessed as inhibition of cell viability incubated for 72 hrs by CCK8 assay; assay type: functional, cell-based; settings: NB-4, 72 h
[3] = test system: MOLM-13; test: Anti-proliferative activity against human MOLM-13 cells assessed as inhibition of cell viability incubated for 72 hrs by CCK8 assay; assay type: functional, cell-based; settings: MOLM-13, 72 h

Row | IC50 [1] [µM] | IC50 [3] [µM] | SMILES | IC50 [2] [µM]
1 | 0.27 |  | Cc1n[nH]c(C)c1-c1cc(C2CC2)c(Nc2ccsc2C(=O)NC#N)c(C2CC2)c1 | 
2 |  | 0.3 | Cc1n[nH]c(C)c1-c1cc(C2CC2)c(Nc2ccsc2C(=O)NO)c(C2CC2)c1 | 0.3
3 | 0.68 |  | Cc1n[nH]c(C)c1-c1cc(Cl)c(Nc2ccsc2C(=O)O)c(Cl)c1 | 
